Measurements as given in US7531646B2, “β-D-ribosidase activity indicators with a chromogenic substrate” (priority 2001, dated 2009).
Like-named read-outs stand apart in the source and are kept apart here.

Key:
K. pneumoniae [1] = experiment: Evaluation of galactoside substrates with metal salts forming chelates; conditions: IPTG 30 mg/l; for Colour of colonies: K. pneumoniae
K. pneumoniae [2] = experiment: Evaluation of benzophenone glucoside on agar (Table 6); set-up: growth: key to the marks not given beside the values; conditions: ferric ammonium nitrate at 500 mg/l
S. sonnei = experiment: as above; format: cell-based; set-up: growth: key to the marks not given beside the values; conditions: ferric ammonium nitrate at 500 mg/l
Source text: (§1) This was achieved using a densitometer.
(§2) The background agar was beige.

S. aureus = experiment: as above; format: cell-based; set-up: growth: key to the marks not given beside the values; conditions: ferric ammonium nitrate at 500 mg/l
Source text: as §1, §2

E. coli [3] = experiment: as above; format: cell-based; set-up: growth: key to the marks not given beside the values; conditions: ferric ammonium nitrate at 500 mg/l
Source text: as §1, §2

Gram positive organisms = experiment: Evaluation of benzophenone glucoside on agar, screen; format: cell-based
Source text: as §1, §2

L. monocytogenes = experiment: Evaluation of benzophenone glucoside on agar (Table 6); conditions: ferric ammonium nitrate at 500 mg/l
E. faecalis = experiment: as above; conditions: ferric ammonium nitrate at 500 mg/l
Y. enterocolitica = experiment: Evaluation of methoxyflavone riboside with metal salts; format: cell-based; conditions: aluminium salt-containing medium; mixed culture with E. coli
Source text: as §1
(§3) The substrate shown in the heading was synthesised from the same flavone starting material as Example 11 by a method analogous to that of Example 2. […] The species tested was E. coli. […] When the aluminium salt-containing medium was used with a mixed culture of E. coli and Yersinia entermcolitica, the E. coli colonies were bright yellow and stood out very clearly.

E. coli [4] = experiment: as above; format: cell-based
Source text: as §1, §3

Clostridium perfringens = format: cell-based; conditions: Clostridium perfringens NCTC 8181; incubated anaerobically
Enterococcus faecalis = experiment: Evaluation of phosphate substrate on agar (Table 3); format: cell-based; conditions: Enterococcus faecalis NCTC 775
Yersinia enterocolitica = format: cell-based; conditions: Yersinia enterocolitica NCTC 11197
Acinetobacter lwoffii = experiment: Evaluation of phosphate substrate on agar (Table 3); format: cell-based; conditions: Acinetobacter lwoffii ATCC 15309
Staphylococcus aureus = experiment: as above; format: cell-based; conditions: Staphylococcus aureus NCTC 6571
All species tested = experiment: Evaluation of phosphate substrate on agar, all species tested; format: cell-based
Escherichia coli = experiment: Evaluation of phosphate substrate on agar (Table 3); format: cell-based; conditions: Escherichia coli NCTC 10418
bacterial enzymes = conditions: cited from earlier work

For “3′,4′-Dihydroxyflavone-4′-β-galactopyranoside sodium salt”, the Colour of colonies (K. pneumoniae [1]; Metal Al, salt 500 mg/l) was “Yellow”, the Colour of colonies (K. pneumoniae [1]; Metal Ba, salt 500 mg/l) was “Pale yellow” and the Colour of colonies (K. pneumoniae [1]; Metal Bi, salt 500 mg/l) was “Rusty orange”. For the same compound, the Colour of colonies (K. pneumoniae [1]; Metal Co, salt 500 mg/l) was “(inhibits; no growth)”, the Colour of colonies (K. pneumoniae [1]; Metal Cu, salt 500 mg/l) was “Orange/brown” and the Colour of colonies (K. pneumoniae [1]; Metal Fe, salt 500 mg/l) was “Dark brown or black”. For the same compound, the Colour of colonies (K. pneumoniae [1]; Metal Mn, salt 500 mg/l) was “Pale orange”, the Colour of colonies (K. pneumoniae [1]; Metal Sn, salt 500 mg/l) was “Pale yellow” and the Colour of colonies (K. pneumoniae [1]; Metal Sr, salt 500 mg/l) was “Yellow”. The Colour of colonies (K. pneumoniae [1]; Metal Zn, salt 500 mg/l) was “(inhibits; no growth)” and the Colour of colonies (K. pneumoniae [1]; No metal) was “Diffuse pale yellow”.
For COc1c(C(=O)c2ccccc2)ccc(O[C@@H]2O[C@H](CO)[C@@H](O)[C@H](O)[C@H]2O)c1O [3,4-dihydroxy-2-methoxybenzophenone-4-β-D-glucopyranoside], the colony colour (K. pneumoniae [2]) was “red/brown”, the growth (K. pneumoniae [2]) was “++” and the colony colour (S. sonnei) was “cream”. For the same compound, the growth (S. sonnei) was “++”, the colony colour (S. aureus) was “cream” and the growth (S. aureus) was “++”. The colony colour (E. coli [3]) was “cream”, the growth (E. coli [3]) was “++” and the effect on growth (Gram positive organisms) was “growth inhibiting”. For the same compound, the colony colour (L. monocytogenes) was “pale black” and the colony colour (E. faecalis) was “cream”.
With COc1c(-c2ccc(O[C@@H]3O[C@H](CO)[C@H](O)[C@H](O)[C@H]3O)c(O)c2)oc2ccccc2c1=O [3′,4′-dihydroxy-3-methoxyflavone-4′-β-D-galactopyranoside] the “Colour of K. pneumoniae colonies” value (K. pneumoniae [1]; Metal Al, salt 500 mg/l) was “Yellow”, the “Colour of K. pneumoniae colonies” value (K. pneumoniae [1]; Metal Ba, salt 500 mg/l) was “Yellow” and the “Colour of K. pneumoniae colonies” value (K. pneumoniae [1]; Metal Bi, salt 500 mg/l) was “Rusty orange”. The “Colour of K. pneumoniae colonies” value (K. pneumoniae [1]; Metal Co, salt 500 mg/l) was “No growth”, the “Colour of K. pneumoniae colonies” value (K. pneumoniae [1]; Metal Fe, salt 500 mg/l) was “Brown” and the “Colour of K. pneumoniae colonies” value (K. pneumoniae [1]; Metal Mn, salt 500 mg/l) was “Pale orange”. The “Colour of K. pneumoniae colonies” value (K. pneumoniae [1]; Metal Sn, salt 500 mg/l) was “Yellow”, the “Colour of K. pneumoniae colonies” value (K. pneumoniae [1]; Metal Sr, salt 500 mg/l) was “Yellow” and the “Colour of K. pneumoniae colonies” value (K. pneumoniae [1]; Metal Zn, salt 500 mg/l) was “No growth”. For the same compound, the “Colour of K. pneumoniae colonies” value (K. pneumoniae [1]; No metal) was “Diffuse yellow”.
In the case of COc1c(-c2ccc(O[C@@H]3O[C@H](CO)[C@@H](O)[C@H]3O)c(O)c2)oc2ccccc2c1=O [3′,4′-dihydroxy-3-methoxyflavone-4′-β-D-ribofuranoside], the “colour of Y. enterocolitica colonies” value (Y. enterocolitica) is reported as “colourless”, the colour of precipitates (E. coli [4]; E. coli, in the presence of metal salts) is reported as “coloured almost identically to the corresponding products referred to in Table 4” and the “colour of E. coli colonies” value (E. coli [4]; aluminium salt-containing medium, mixed culture of E. coli and Yersinia) is reported as “bright yellow”.
In the case of COc1c(-c2ccc(OP(=O)(O)O)c(O)c2)oc2ccccc2c1=O [Example 11], the Interpretation (Clostridium perfringens) is reported as “Positive”, the colony appearance (Clostridium perfringens) is reported as “dark green” and the Interpretation (Enterococcus faecalis) is reported as “Positive”. For the same compound, the colony appearance (Enterococcus faecalis) was “small dark green/black”, the Interpretation (Yersinia enterocolitica) was “Negative” and the colony appearance (Yersinia enterocolitica) was “colourless”. For the same compound, the Interpretation (Acinetobacter lwoffii) was “Negative”, the colony appearance (Acinetobacter lwoffii) was “colourless” and the Interpretation (Staphylococcus aureus) was “Positive”. The colony appearance (Staphylococcus aureus) was “dark green”, the “growth on this medium” value (All species tested) was “grew well” and the Interpretation (Escherichia coli) was “Positive”. For the same compound, the colony appearance (Escherichia coli) was “pale green”.
In the case of O=C1c2ccccc2C(=O)c2c1ccc(O[C@@H]1O[C@H](CO)[C@H](O)[C@H](O)[C@H]1O)c2O [alizarin β-D-galactopyranoside, alizarin β-D- galactopyranoside], the Colour of colonies (bacterial enzymes; in the presence of aluminium salts) is given as “bright-red” and the Colour of colonies (bacterial enzymes; in the presence of iron salts) is given as “bright-violet”.
